Reference: doi:10.1101/2021.09.27.461913v1, “Interactions of cytosolic termini of the Jen1 monocarboxylate transporter are critical for trafficking, transport activity and endocytosis” (biorxiv, 2021)

Legend:
Experiment in all cases: radiolabelled [3H]-xanthine uptake in intact  cells
Assay type in all cases: cell-based, Aspergillus nidulans
Details in all cases: labelled compound
UapA/Jen1NT94 = system: T1, UapA/Jen1NT94
T1 construct: Jen1 residues 1-94 fused N-terminally to intact UapA, GFP-tagged, GAL promoter, in S. cerevisiae; one polypeptide; with Carboxylic acid transporter protein homolog

UapA/Jen1CT33 = system: T2, UapA/Jen1CT33
T2 construct: Jen1 residues 584-616 fused C-terminally to intact UapA, GFP-tagged, GAL promoter, in S. cerevisiae; one polypeptide; with Carboxylic acid transporter protein homolog

UapA/Jen1NT94-CT33 = system: T3, UapA/Jen1NT94-CT33
T3 construct: Jen1 1-94 / intact UapA / Jen1 584-616, GFP-tagged, GAL promoter, in S. cerevisiae; one polypeptide; with Carboxylic acid transporter protein homolog; Carboxylic acid transporter protein homolog

O=c1[nH]c(=O)c2[nH]cnc2[nH]1 [xanthine]
Km (UapA/Jen1NT94): 5 ± 2 µM | Km (UapA/Jen1CT33): 10 ± 3 µM | Km (UapA/Jen1NT94-CT33): 101 ± 10 µM
